Patent publication US11918675B2, “Oral care compositions” (priority 2019, dated 2024)

Experiments:
Type in all cases: cell-based
Whole human saliva [1] = assay: In vitro malodor study: fermentation measured by pH; settings: pooled whole human saliva 2% in growth medium, incubated overnight, n=6
Protocol: (§1) An in vitro malodor study was conducted to evaluate the effect of various combinations of inulin and xylitol with zinc on oral malodor. Malodor is a combination of hydrogen sulfide and other volatile compounds. Microbial growth as measured by OD610, and fermentation, as measured by pH (confounding variables that impact oral malodor) were also evaluated.
(§2) Whole human saliva was collected from four donors, pooled and suspended in growth medium at a 2% final concentration. Stock, simple solutions of inulin, xylitol, and zinc citrate were prepared in growth medium and incorporated according to the experiment design specified in Table 3 (below). Treatment suspensions were incubated overnight in sterilized headspace vials.
The pH was measured using a standard pH meter by following validated procedures. Statistical significance of differences for all parameters was determined using one-way ANOVA test at 95% confidence level with a Tukey pairwise comparison test. Microbial growth and pH were used to stratify the treatments for hydrogen sulfide statistical analysis.

Whole human saliva [2] = assay: In vitro malodor study: hydrogen sulfide in headspace by SIFT-MS; settings: pooled whole human saliva 2% in growth medium, incubated overnight, n=6; groups stratified by growth and pH
Protocol: as §1, §2
(§3) Malodor (i.e., hydrogen sulfide and other volatile compounds) in the culture vial headspace was quantified using validated procedures on Voice200ultra SIFT-MS (Syft Technologies, Christchurch, New Zealand). Following SIFT-MS analysis, microbial growth was quantified using optical density at λ=610 nm.
Hydrogen sulfide in headspace of salivary inoculum was quantified using SIFT-MS validated procedure.

Whole human saliva [3] = assay: In vitro malodor study: microbial growth by OD610; settings: pooled whole human saliva 2% in growth medium, incubated overnight, n=6
Protocol: as §1, §2, §3

Row | SMILES | pH, Mean (Whole human saliva [1]) | Hydrogen sulfide in headspace of salivary inoculum, Mean (Whole human saliva [2]) [ppb] | Microbial growth as observed by OD610, Mean (Whole human saliva [3])
1 | OC[C@@H](O)[C@H](O)[C@@H](O)CO [Example 4, xylitol] | 5.9067 | 2243 | 0.4182
2 | O=C([O-])CC(O)(CC(=O)[O-])C(=O)[O-].O=C([O-])CC(O)(CC(=O)[O-])C(=O)[O-].[Zn+2].[Zn+2].[Zn+2] [Example 5, zinc citrate] | 6.5948 | 21.86 | 0.1407
